Results on six compounds are retold here after US5614504A, “Method of making inosine monophosphate derivatives and immunopotentiating uses thereof” (The University of South Florida, priority 1995, dated 1997).

One series in a line: in vitro. It is filed as in vitro ADME, Crotalus atrox. To be noted: rattlesnake, pH 7.3; 0.02 units 5'-nucleotidase, 37° C., 10 minutes; four experiments; read-out: Hydrolysis (%). The protocol: (§1) Nucleotide samples (40-60 nmoles) were incubated at 37° C. for 10 minutes with 0.02 units 5'-nucleotidase in a total volume of 100 μl containing […] HEPES, pH 7.3 and […] MgCl2. […] Phosphate was determined by the absorbance of 820 nm. Blanks consisting of nucleotide but no enzyme were tested in parallel to correct for non-enzymatic hydrolysis.

The test system of series [1] is mouse spleen lymphocytes (MSL). In words: Mouse spleen lymphocyte proliferation to Con A. The format is cell-based. The following applies: 0.1, 1, 10, 100 μg/ml; Con A 0.5 μg/ml. The protocol: (§2) In vitro: Both human peripheral blood lymphocytes (HPBL) and mouse spleen lymphocytes (MSL) were employed. […] For HPBL transformation, PHA and PWM were used at 0.5 μg/ml. For MSL transformation, Con A was used at 0.5 μg/ml, phytohemagglutinin (PHA, Murex Diagnostics, Atlanta, Ga.) at 0.5 μg/ml and lipopolysaccharide endotoxin (LPS, Sigma, St. Louis, Mo.) at 10 μg/ml.
(§3) They were cultured in microwell plates at 1.5×10^6 cells/ml of minimal essential media (MEM, Gibco Labs, Grand Island, N.Y.) with 5% fetal calf serum (FCS, Hyclone Labs, Logan, Utah) and tested for their proliferative response to mitogens as measured by incorporation of (^3 H) tritiated thymidine (New England Nuclear, Wilmington Del., […]; 2.5 μCi/ml) during a terminal pulse followed by liquid scintillation spectrometry.

Series [2] deals with 5'-nucleotidase (from Crotalus atrox venom). The series can be described thus: in vitro. The format is in vitro ADME. The following applies: in words. On the procedure:
as §1

The test system of series [3] is spleen plaque antibody forming cells (PFC). In words: In vivo stimulation of PFC response to SRBC. The following applies: for effect on PFC response: 50 mg/kg of body weight ip with SRBC, PFC five days later; for dose of optimal stimulation of PFC response: intraperitoneal. Details: species or system mice. The protocol:
Five days later, suspensions of spleen cells were prepared and their viability was determined by trypan blue exclusion test. Cells were suspended at 3×10^6 /ml. 0.2 ml of spleen cell suspension was mixed with 0.8 ml of 0.7% agarose and 0.2 ml of freshly washed SRBC (at 6×10^5 /ml). The mixture was immediately poured into the plate and allowed to solidify. After 60 minutes of incubation at 37° C. in a humid atmosphere of 5% CO2 in the air, the plate was flooded with 1 ml of guinea-pig complement diluted 1:5 with Hank's balanced saline. Hemolytic plaques were counted with an inverted scope using 4× magnification.
Spleen plaque antibody forming cells (PFC) were measured at the end of the five days.

The test system of series [4] is human peripheral blood lymphocytes (HPBL). The series can be described thus: Response of normal HPBL to PHA (tritiated thymidine incorporation). It is filed as cell-based. The following applies: 0.1-100 μg/ml; FIG. 1. The protocol:
as §2, §3

Another series relates to influenza virus. The format is in vivo, NMRI mice. To be noted: Squalane alone.
The conditions of series [5]: in man; cited from earlier work.

Turning to `Nc1ncnc2c1ncn2[C@@H]1O[C@H](COP(=O)(O)O)[C@@H](O)[C@H]1O` [Adenosine MP, adenosine-5'-monophosphate, reference compound], the metabolised at 10 min in the series “in vitro” turned out to be 86%.

As to `N=C(N)NCCC[C@H](NP(=O)(O)OC[C@H]1O[C@@H](n2cnc3c(=O)[nH]cnc32)[C@H](O)[C@@H]1O)C(=O)O` [Arg-IMP, Arginine-5'-inosine-monophosphate], the “proliferative responses of MSL to Con A” value in series [1] is “stimulated the proliferative responses”. In addition, in “in vitro”, the metabolised at 10 min amounted to 12%. The “resistance to hydrolysis by 5'-nucleotidase” value (from here on “resistance to hydrolysis”) in series [2] was “moderate”. In addition, in series [3], the “effect on PFC response” value is “significantly stimulated” and the “dose of optimal stimulation of PFC response” value is on record as 50 mg/kg of body weight. In addition, the “relative activity on HPBL response to PHA” value (shortened to “relative activity”) in series [4] was “more active”.

As for `CCOP(=O)(O)OC[C@H]1O[C@@H](n2cnc3c(=O)[nH]cnc32)[C@H](O)[C@@H]1O` [E-IMP, Ethyl-5'-inosine-monophosphate], in series [1], the “proliferative responses of MSL to Con A” value is listed as “stimulated the proliferative responses”. Further, the metabolised at 10 min in “in vitro” was found to be 2.9%. Also, the “resistance to hydrolysis” value in series [2] was “extremely resistant”. The “relative activity” value in series [4] is “more active”.

For the compound `CC(CCCC(C)(C)O)NP(=O)(O)OC[C@H]1O[C@@H](n2cnc3c(=O)[nH]cnc32)[C@H](O)[C@@H]1O` (stereo partly shown) [Ha-IMP, (Heptamin-1-ol)-5'-inosine-monophosphate], the “proliferative responses of MSL to Con A” value in series [1] is “stimulated the proliferative responses”. Besides, the metabolised at 10 min in “in vitro” came to 76%. Moreover, in series [2], the “resistance to hydrolysis” value was “mild”. Further, in series [3], the “effect on PFC response” value is listed as “significantly stimulated” and the “dose of optimal stimulation of PFC response” value is given as 50 mg/kg of body weight. In series [4], the “relative activity” value is on record as “low”.

For the compound `CC(C)CCCC(C)CCCC(C)CCCCC(C)CCCC(C)CCCC(C)C` (stereo not shown) [Squalane, reference compound], the “effect on survival after influenza challenge” value in the series on influenza virus is listed as “no effect”.

Turning to isoprinosine, the half-life entry in series [5] was “less than four”.
